Laboratory results published in patent US9856279B2 (AGIOS PHARMACEUTICALS, INC, priority 2011, dated 2018).

Columns and labels:
IDH1 R132H = IDH1 R132H (Homo sapiens, UniProt O75874, R132H); test: Assay for IDH1 R132H inhibitors (NADPH/aKG, resazurin detection); format: biochemical; conditions: enzyme assay of Example 12; read-out: IDH1R132H IC50
How it was run: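 Compound added to substrate mix (8 uM NADPH, 2 mM aKG), then enzyme mix (0.2 μg/ml IDH1 R132H); 50 min RT in 20 mM Tris pH 7.5, 150 mM NaCl, 10 mM MgCl2, 0.03% BSA. Resazurin detection mix (30 μM) 5 min RT; resorufin fluorescence Ex544/Em590.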

HT1080 cells = test: Cellular assay for IDH1m inhibitors: inhibition of 2-HG production (LC-MS, 48 hours) in HT1080 cells; format: cell-based; conditions: Homo sapiens, HT-1080; inhibition of 2-HG production, HT1080 cells; read-out: HT1080 IC50
Experimental: (§1) Cells (e.g., HT1080 or U87MG) and are grown in T125 flasks in DMEM containing 10% FBS, 1× penicillin/streptomycin and 500 ug/mL G418. They are harvested by trypsin and seeded into 96 well white bottom plates at a density of 5000 cell/well in 100 ul/well in DMEM with 10% FBS. No cells are plates in columns 1 and 12. Cells are incubated overnight at 37° C. in 5% CO2. The next day compounds are made up at 2× concentration and 100 ul are added to each cell well. The final concentration of DMSO is 0.2% and the DMSO control wells are plated in row G. The plates are then placed in the incubator for 48 hours. At 48 hours, 100 μl of media is removed from each well and analyzed by LC-MS for 2-HG concentrations. The cell plate is placed back in the incubator for another 24 hours. At 72 hours post compound addition, 10 mL/plate of Promega Cell Titer Glo reagent is thawed and mixed. The cell plate is removed from the incubator and allowed to equilibrate to room temperature. Then 100 ul of reagent is added to each well of media. The cell plate is then placed on an orbital shaker for 10 minutes and then allowed to sit at room temperature for 20 minutes. The plate is then read for luminescence with an integration time of 500 ms.
(§2) The IC50 for inhibition of 2-HG production (concentration of test compound to reduce 2HG production by 50% compared to control) in these two cell lines for various compounds of formula I is set forth in Table 4 above.

U87MG cells = test: Cellular assay for IDH1m inhibitors: inhibition of 2-HG production (LC-MS, 48 hours) in U87MG cells; format: cell-based; conditions: Homo sapiens, U-87 MG, inhibition of 2-HG production, U87R132H cells; read-out: U87R132H IC50
Experimental: as §1, §2

Sequence of IDH1 R132H (O75874 whole entry R132H): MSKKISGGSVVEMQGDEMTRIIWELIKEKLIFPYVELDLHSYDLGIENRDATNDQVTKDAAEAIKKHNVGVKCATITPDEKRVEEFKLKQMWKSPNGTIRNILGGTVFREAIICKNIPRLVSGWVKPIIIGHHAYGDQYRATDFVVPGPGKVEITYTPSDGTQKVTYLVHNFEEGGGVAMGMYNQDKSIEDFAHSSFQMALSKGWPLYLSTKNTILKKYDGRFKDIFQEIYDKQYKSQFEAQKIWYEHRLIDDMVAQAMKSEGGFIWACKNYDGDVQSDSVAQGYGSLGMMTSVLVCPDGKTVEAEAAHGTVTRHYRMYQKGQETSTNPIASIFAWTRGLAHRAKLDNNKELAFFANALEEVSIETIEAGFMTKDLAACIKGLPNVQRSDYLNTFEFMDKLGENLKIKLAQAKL

C=Cc1ncccc1-c1cc(C#N)c(N2CCN(C(=O)CCOC)[C@H](C)C2)nc1C1CC1 [Compound 619, (R)-2-cyclopropyl-6-(4-(3-methoxypropanoyl)-3-methylpiperazin-1-yl)-2′-vinyl-3,3′-bipyridine-5-carbonitrile]
IC50 (IDH1 R132H): < 500 nM
IC50 (HT1080 cells): < 500 nM

C=Cc1ccc(-c2cc(C#N)c(N3CCN(C(=O)CCOC)[C@H](C)C3)nc2C2CC2)cn1 [Compound 620, (R)-2-cyclopropyl-6-(4-(3-methoxypropanoyl)-3-methylpiperazin-1-yl)-6′-vinyl-3,3′-bipyridine-5-carbonitrile]
IC50 (IDH1 R132H): < 500 nM
IC50 (HT1080 cells): < 500 nM

C=Cc1cc(-c2cc(C#N)c(N3CCN(C(=O)CCOC)[C@H](C)C3)nc2C2CC2)cc(OC)n1 [Compound 622, (R)-2-cyclopropyl-2′-methoxy-6-(4-(3-methoxypropanoyl)-3-methylpiperazin-1-yl)-6′-vinyl-[3,4′-bipyridine]-5-carbonitrile]
IC50 (IDH1 R132H): 500 to 1000 nM
IC50 (HT1080 cells): 1000 to 10000 nM

C=Cc1cc(-c2cc(C#N)c(N3CCN(C(=O)CCOC)[C@H](C)C3)nc2C2CC2)cc(C=C)n1 [Compound 624, (R)-2-cyclopropyl-6-(4-(3-methoxypropanoyl)-3-methylpiperazin-1-yl)-2′,6′-divinyl-[3,4′-bipyridine]-5-carbonitrile]
IC50 (IDH1 R132H): < 500 nM
IC50 (HT1080 cells): < 500 nM

C=C(CO)c1cc(-c2cc(C#N)c(N3CCN(C(=O)CCOC)[C@H](C)C3)nc2C2CC2)ccn1 [Compound 653, (R)-2-cyclopropyl-2′-(3-hydroxyprop-1-en-2-yl)-6-(4-(3-methoxypropanoyl)-3-methylpiperazin-1-yl)-[3,4′-bipyridine]-5-carbonitrile]
IC50 (IDH1 R132H): < 500 nM
IC50 (HT1080 cells): < 500 nM

C=Cc1cc(-c2cc(C#N)c(N3CCN(C(=O)CCO)[C@H](C4CC4)C3)nc2C2CC2)c2cccnc2n1 [Compound 655, (R)-6-cyclopropyl-2-(3-cyclopropyl-4-(3-hydroxypropanoyl)piperazin-1-yl)-5-(2-vinyl-1,8-naphthyridin-4-yl)nicotinonitrile]
IC50 (IDH1 R132H): < 500 nM
IC50 (HT1080 cells): < 500 nM

C=Cc1cc(N(C(C)=O)c2cc(C#N)c(N3CCN(C(=O)CCOC)[C@H](C)C3)nc2C2CC2)ccn1 [Compound 662, (R)—N-(5-cyano-2-cyclopropyl-6-(4-(3-methoxypropanoyl)-3-methylpiperazin-1-yl)pyridin-3-yl)-N-(2-vinylpyridin-4-yl)acetamide]
IC50 (IDH1 R132H): < 500 nM
IC50 (HT1080 cells): < 500 nM

C=Cc1cc(-c2cc(C#N)c(N3CCN(C(=O)C4(O)CC4)[C@H](C)C3)nc2C2CC2)ccn1 [Compound 664, (R)-2-cyclopropyl-6-(4-(1-hydroxycyclopropanecarbonyl)-3-methylpiperazin-1-yl)-2′-vinyl-3,4′-bipyridine-5-carbonitrile]
IC50 (IDH1 R132H): < 500 nM
IC50 (HT1080 cells): < 500 nM

COCCC(=O)N1CCN(c2nc(C3CC3)c(Oc3ccnc(Cl)c3)cc2C#N)C[C@H]1C [Compound 668, (R)-5-((2-chloropyridin-4-yl)oxy)-6-cyclopropyl-2-(4-(3-methoxypropanoyl)-3-methylpiperazin-1-yl)nicotinonitrile]
IC50 (IDH1 R132H): < 500 nM
IC50 (HT1080 cells): 500 to 1000 nM

C=Cc1nc(-c2cc(C#N)c(N3CCN(C(=O)C4CC4)[C@H](C4CC4)C3)nc2C2CC2)c2ccccc2n1 [Compound 669, (R)-2-(4-(cyclopropanecarbonyl)-3-cyclopropylpiperazin-1-yl)-6-cyclopropyl-5-(2-vinylquinazolin-4-yl)nicotinonitrile]
IC50 (IDH1 R132H): < 500 nM
IC50 (HT1080 cells): < 500 nM

C=Cc1cc(-c2cc(C#N)c(N3CCN(C(=O)CCOC)[C@H](C)C3)nc2C2CC2)cc(C#N)n1 [Compound 672, (R)-2-cyclopropyl-6-(4-(3-methoxypropanoyl)-3-methylpiperazin-1-yl)-6′-vinyl-[3,4′-bipyridine]-2′,5-dicarbonitrile]
IC50 (IDH1 R132H): 500 to 1000 nM
IC50 (HT1080 cells): 1000 to 10000 nM

N#Cc1cc(Nc2ccnc(Cl)c2)c(C2CC2)nc1N1CCN(C(=O)CCO)[C@H](C2CC2)C1 [Compound 677, (R)-5-((2-chloropyridin-4-yl)amino)-6-cyclopropyl-2-(3-cyclopropyl-4-(3-hydroxypropanoyl)piperazin-1-yl)nicotinonitrile]
IC50 (IDH1 R132H): < 500 nM
IC50 (HT1080 cells): < 500 nM

COCCC(=O)N1CCN(c2nc(C3CC3)c(Nc3ccnc(Cl)c3)cc2C#N)C[C@H]1C1CC1 [Compound 679, (R)-5-((2-chloropyridin-4-yl)amino)-6-cyclopropyl-2-(3-cyclopropyl-4-(3-methoxypropanoyl)piperazin-1-yl)nicotinonitrile]
IC50 (IDH1 R132H): < 500 nM
IC50 (HT1080 cells): < 500 nM

C=CC(=O)N1CCC=C(c2c(C3CC3)nc(N3CCN(C(=O)CCOC)[C@H](C)C3)c(C#N)c2C)C1 [Compound 680, (R)-5-(1-acryloyl-1,2,5,6-tetrahydropyridin-3-yl)-6-cyclopropyl-2-(4-(3-methoxypropanoyl)-3-methylpiperazin-1-yl)-4-methylnicotinonitrile]
IC50 (IDH1 R132H): < 500 nM
IC50 (HT1080 cells): < 500 nM

C=Cc1cc(Cc2cc(C#N)c(N3CCN(C(=O)C4CC4)[C@H](C4CC4)C3)nc2C2CC2)ccn1 [Compound 684, (R)-2-(4-(cyclopropanecarbonyl)-3-cyclopropylpiperazin-1-yl)-6-cyclopropyl-5-((2-vinylpyridin-4-yl)methyl)nicotinonitrile]
IC50 (IDH1 R132H): < 500 nM
IC50 (HT1080 cells): < 500 nM

C=Cc1cc(-c2cc(C#N)c(N3CCN(C(=O)CCO)[C@H](C4CC4)C3)nc2C2CC2)c2cccnc2n1 [Compound 691]
IC50 (U87MG cells): < 500 nM

C=CC(=O)N(c1cc(C#N)c(N2CCN(C(=O)CCOC)[C@H](C)C2)nc1C1CC1)c1ccnc2ccccc12 [Compound 712, (R)—N-(5-cyano-2-cyclopropyl-6-(4-(3-methoxypropanoyl)-3-methylpiperazin-1-yl)pyridin-3-yl)-N-(quinolin-4-yl)acryl amide]
IC50 (IDH1 R132H): < 500 nM
IC50 (HT1080 cells): 1000 to 10000 nM

C=Cc1cc(Nc2c(C3CC3)nc(N3CCN(C(=O)CCOC)[C@H](C(C)C)C3)c(C#N)c2C)ccn1 [Compound 807, (R)-6-cyclopropyl-2-(3-isopropyl-4-(3-methoxypropanoyl)piperazin-1-yl)-4-methyl-5-((2-vinylpyridin-4-yl)amino)nicotinonitrile]
IC50 (IDH1 R132H): < 500 nM
IC50 (HT1080 cells): < 500 nM

N#Cc1ccnc(Nc2cc(C#N)c(N3CCN(C(=O)C[C@H]4CCO4)[C@H](C4CC4)C3)nc2C2CC2)n1 [Compound 808, 2-(5-cyano-2-cyclopropyl-6-((R)-3-cyclopropyl-4-(2-((R)-oxetan-2-yl)acetyl)piperazin-1-yl)pyridin-3-ylamino)pyrimidine-4-carbonitrile]
IC50 (IDH1 R132H): < 500 nM
IC50 (HT1080 cells): < 500 nM

N#Cc1ccnc(Nc2cc(C#N)c(N3CCN(C(=O)C[C@H]4CCO4)[C@H](C4CC4)C3)nc2C2CC2)c1 [Compound 809, 5-(4-cyanopyridin-2-ylamino)-6-cyclopropyl-2-((R)-3-cyclopropyl-4-(2-((R)-oxetan-2-yl)acetyl)piperazin-1-yl)nicotinonitrile]
IC50 (IDH1 R132H): < 500 nM
IC50 (HT1080 cells): < 500 nM

C=Cc1ccnc(Nc2cc(C#N)c(N3CCN(C(=O)CCCO)[C@H](C4CC4)C3)nc2C2CC2)c1 [Compound 815, (R)-6-cyclopropyl-2-(3-cyclopropyl-4-(4-hydroxybutanoyl)piperazin-1-yl)-5-((4-vinylpyridin-2-yl)amino)nicotinonitrile]
IC50 (IDH1 R132H): < 500 nM
IC50 (HT1080 cells): < 500 nM

C=Cc1ccnc(Nc2cc(C#N)c(N3CCN(C(=O)CC4CCC4)[C@H](C4CC4)C3)nc2C2CC2)c1 [Compound 817, (R)-2-(4-(2-cyclobutylacetyl)-3-cyclopropylpiperazin-1-yl)-6-cyclopropyl-5-((4-vinylpyridin-2-yl)amino)nicotinonitrile]
IC50 (IDH1 R132H): < 500 nM
IC50 (HT1080 cells): < 500 nM

C=Cc1cc(-c2cc(C#N)c(N3CCN(C(=O)CN4CCC4=O)[C@H](C4CC4)C3)nc2C2CC2)ccn1 [Compound 818]
IC50 (IDH1 R132H): < 500 nM
IC50 (HT1080 cells): < 500 nM

C=Cc1cc(-c2c(C3CC3)nc(N3CCN(C(=O)CC4CCC4)[C@H](C4CC4)C3)c(C#N)c2C)ccn1 [Compound 819, (R)-6-(4-(2-cyclobutylacetyl)-3-cyclopropylpiperazin-1-yl)-2-cyclopropyl-4-methyl-2′-vinyl-3,4′-bipyridine-5-carbonitrile]
IC50 (IDH1 R132H): < 500 nM
IC50 (HT1080 cells): < 500 nM

C=Cc1cc(-c2cc(C#N)c(N3CCN(C(=O)C[C@H]4CCCO4)[C@H](C4CC4)C3)nc2C2CC2)ccn1 [Compound 822]
IC50 (IDH1 R132H): < 500 nM
IC50 (HT1080 cells): < 500 nM

C=Cc1cc(-c2c(C3CC3)nc(N3CCN(C(=O)C[C@H]4CCO4)[C@H](C4CC4)C3)c(C#N)c2CC)ccn1 [Compound 823, 2-cyclopropyl-6-((R)-3-cyclopropyl-4-(2-((R)-oxetan-2-yl)acetyl)piperazin-1-yl)-4-ethyl-2′-vinyl-[3,4′-bipyridine]-5-carbonitrile]
IC50 (IDH1 R132H): < 500 nM
IC50 (HT1080 cells): < 500 nM
